{"source": "patent US20240366540A1", "about": "“MITOFUSIN INHIBITORS AND USES THEREOF” (Albert Einstein College of Medicine, priority 2021, published 2024)", "tested_on": "MEFs", "assay": "Cytochrome C release", "format": "cell-based, mouse", "conditions": "6 hrs treatment, cytosolic and mitochondrial fractions", "description": "Cytochrome C release. MEFs were seeded in a 10 cm^2 dish and grown at ˜70% confluence. Following 6 hrs treatment with MFI8, cells were harvested and lysed in digitonin buffer [20 mM Hepes, pH 7.2, 10 mM KCl, 5 mM MgCl2, Im MEDTA, 1 mM EGTA, 250 mM sucrose, 0.025% Digitonin (from 5% w/v stock) and complete protease inhibitors (Roche Applied Science)] on ice for 10 min. Then, supernatants were isolated by centrifugation at 15,000×g for 10 min. Mitochondrial pellets solubilized in 1% Triton X-100/PBS for 1 hr at 4° C. Solubilized Pellets were subjected to a 14,000×rpm spin for 10 min. Samples were prepared for western blot analysis and separated by 4-12% NuPage (Life Technologies).", "data": [{"smiles": "Cc1cccc(NC(C)c2cc(Cl)ccc2O)c1C", "note": "(stereo not shown) [MFI8, 4-Chloro-2-(1-((2,3-dimethylphenyl)amino)ethyl)phenol]", "values": [{"measurement": "cytochrome c release to the cytosol", "result": "cytochrome c was released to the cytosol, albeit at modest levels"}]}]}
